Earlier results as cited in patent publication US4996197A, “Pharmaceutical and/or cosmetic composition for local use containing Rhamsan gum” (Laboratoires Merck Sharp & Dohme-Chibret, priority 1987, dated 1991).

Conditions: with polyvinyl alcohol; Maichuk, Am. J. Ophthal, 74: 694, 1972

Compound: Nc1ccc(S(=O)(=O)[N-]c2cccnn2)cc1.[Na+] [sulphapyridazine sodium]
- pharmacological response to medicinal products: enhances the pharmacological response

Compound: erythrocin propionate
- pharmacological response to medicinal products: enhances the pharmacological response
